As a reminder, the inhibition is how much of the control response was suppressed. As a reminder, the pIC50 is the negative decadic logarithm of the IC50, by convention in mol/L. What is called IC50 is the concentration that inhibits the measured activity by half.

Each structure is given as a SMILES string. pIC50: −log10 of the molar value.

The target of assay [1] is T1, human V1a receptor (Homo sapiens, UniProt P37288). In words: In-vitro binding assay, 3H-arginine-8-vasopressin, V1a membranes. The note with it: membrane containing human V1a receptor; for inhibition at 0.2 µM: read-out: V1a (binding) Percent inhibition at 0.2 μM; for pIC50: 3H-vasopressin 0.65-0.75 nM. As for the experimental part:
(§1) Assay buffer is 50 mM Tris-Cl, 5 mM MgCl2, 0.1% BSA (pH 7.5) containing 5 μg/ml of aprotinin, leupeptin, pepstatin, 50 μg/ml bacitracin, and 1 mM Pefabloc (4-(2-Aminoethyl)-benzenesulfonyl fluoride, hydrochloride manufactured by Roche Diagnostics Corporation, Indianapolis, Ind. and distributed by Boehringer Mannheim). H3 vasopressin is ^3H-arginine-8-vasopressin (NEN Life Sciences, Boston, Mass.; 68.5 Ci/mmol, final concentration in assay is 0.65-0.75 nM). Into wells of 96-well round bottom polypropylene plates are added buffer, test compound, membrane (containing human V1a or V2 receptor), and H3 vasopressin. The reaction plates are allowed to sit at room temperature for one hour. The samples are filtered through Unifilter GF/C plates (PerkinElmer Life Sciences, Boston, Mass.) presoaked in 0.3 polyethyleneimine. The plates are washed 5 times with cold physiological saline containing 0.05% Tween 20. After drying, the bottom of the filter plates are sealed and 0.025 ml of Microscint-20 (Packard Instrument Co, Meriden, Conn.) is added to each filter. The top of the plate is sealed, and the plate is counted. Non-specific binding is determined by the addition of 1.25 μM arginine-8-vasopressin in those wells. % Inh. is calculated as follows: % inhibition=100−100×peak response after drug/peak response before drug

The target of assay [2] is T2, human V2 receptor (Homo sapiens, UniProt P30518). The assay is described as follows: In-vitro binding assay, 3H-arginine-8-vasopressin, V2 membranes. The note with it: membrane containing human V2 receptor; for inhibition at 0.2 µM: read-out: V2 (binding) Percent inhibition at 0.2 μM; for pIC50: 3H-vasopressin 0.65-0.75 nM. As for the experimental part: as §1
For assay [3], the target named is T1, human V1a receptor. The assay is described as follows: V1a vasopressin receptor functional activity (calcium mobilization, FLIPR, V1a-HEK cells). It counts as cell-based. The note with it: inhibition of vasopressin-induced intracellular calcium mobilization in V1a-HEK cells. As for the experimental part: The V1a receptor is a G-protein coupled receptor, which upon activation triggers an increase in intracellular calcium mobilization. To evaluate compounds for their functional V1a receptor activity, HEK-293 cells were transfected with the human V1a receptor (V1a-HEK cells). HEK-293 cells were grown in DMEM (Dulbecco's modified Eagle Media) supplemented with 10% FBS and glutamine. HEK-cells were passed biweekly by trypsinization and seeded into 96 well plates at 33,000 cells per well. HEK-293 cells were transfected with human V1a receptor DNA using DMRIE-C reagent from Life Technologies (Carlsbad, Calif.). Stable lines were generated by selecting cells grown in culture media containing geneticin. After growing in Packard Clear-View black 96 well plates for 4-6 days, V1a-HEK cells were loaded with the calcium-sensitive fluorescence dye, FLUO-3 AM. Changes in intracellular calcium mobilization were measured by quantitating intracellular fluorescence using FLIPR (Fluorometric Imaging Plate Reader; Molecular Devices, Sunnyvale, Calif.). Test compounds were first added to the cells and the resulting changes in fluorescence measured to detect receptor agonistic activity. Five minutes later the cells were challenged with vasopressin to test compounds for their antagonistic activity. Receptor antagonists inhibit the ability of vasopressin to stimulate increases in intracellular fluorescence. IC50's were calculated.
In general terms: A change in cytosolic calcium serves as a functional read-out for many receptors and channels.

The target in assay [4] is T2, human V2 receptor. The assay is described as follows: V2 vasopressin receptor functional activity (cAMP accumulation, V2-HEK cells). Particulars: inhibition of vasopressin-stimulated cAMP accumulation in V2-HEK cells. It counts as cell-based. More on the design: expressed in transfected cells; host or cells: HEK-293. The method, then: The V2 receptor is also a G-protein coupled receptor which when activated induces an increase in cAMP turnover. Antagonism against the V2 receptor is determined by measuring cAMP accumulation in transfected HEK-293 cells expressing the human V-2 receptor (V2-HEK cells). Compounds are tested for their ability to block the stimulatory effects of vasopressin on cAMP accumulation. The cell content of cAMP is measured by radioimmunoassay using NEN flashplates.
(Changes in cAMP serve as a functional read-out for many G protein-coupled receptors.)

T2 sequence (P30518 whole entry): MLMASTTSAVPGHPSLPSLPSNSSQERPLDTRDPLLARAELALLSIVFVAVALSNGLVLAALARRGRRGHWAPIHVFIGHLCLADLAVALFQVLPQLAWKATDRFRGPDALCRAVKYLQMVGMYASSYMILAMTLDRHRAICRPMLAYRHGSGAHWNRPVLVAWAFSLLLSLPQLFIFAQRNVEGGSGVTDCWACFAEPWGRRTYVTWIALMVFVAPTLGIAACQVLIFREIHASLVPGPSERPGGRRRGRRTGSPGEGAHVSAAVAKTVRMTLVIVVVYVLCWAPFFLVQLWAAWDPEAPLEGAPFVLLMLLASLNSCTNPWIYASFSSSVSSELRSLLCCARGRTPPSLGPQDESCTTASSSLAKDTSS
T1 sequence (P37288 whole entry): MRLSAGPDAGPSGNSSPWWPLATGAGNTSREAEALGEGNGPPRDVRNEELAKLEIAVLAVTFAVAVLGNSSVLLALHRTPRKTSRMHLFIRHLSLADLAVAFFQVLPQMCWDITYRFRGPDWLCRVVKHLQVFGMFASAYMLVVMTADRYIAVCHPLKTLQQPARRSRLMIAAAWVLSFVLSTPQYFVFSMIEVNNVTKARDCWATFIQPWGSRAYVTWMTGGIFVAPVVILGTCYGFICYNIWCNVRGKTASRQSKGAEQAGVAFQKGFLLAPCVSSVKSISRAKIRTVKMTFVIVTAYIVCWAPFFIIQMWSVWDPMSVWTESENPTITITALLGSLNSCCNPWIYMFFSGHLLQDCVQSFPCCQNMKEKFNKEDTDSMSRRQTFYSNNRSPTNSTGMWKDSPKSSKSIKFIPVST

For `CCOC(=O)CN1CCC2(CCN(C(=O)c3ccc(NC(=O)c4cc(F)ccc4Cl)cc3)c3ccccc3C2)C1=O` (stereo not shown) [Compound 22, Spiro{4H-1-benzazepine-4,3′-pyrrolidin}-1′-acetic acid, 1-[{(2-chloro-5-fluorobenzoyl)amino}benzoyl]1,2,3,5-tetrahydro-2′-oxo, ethyl ester], the inhibition at 0.2 µM turned out to be 66% at human V1a receptor [1] and 17% at human V2 receptor [2].
At human V1a receptor [1], `O=C(Nc1ccc(C(=O)N2CCC3(CCCNC3=O)Cc3ccccc32)cc1)c1ccccc1` (stereo not shown) [Compound 37, Benzamide, N-[4-{(2,3-dihydro-2′-oxospiro[4H-1-benzazepine-4,3-piperidin}-1(5H)-yl)carbonyl}phenyl]] had a negative logarithm of the IC50 (pIC50) of 7.30. Moreover, the inhibition at 0.2 µM on human V2 receptor [2] worked out at 23%. The IC50 at human V1a receptor [3] amounted to 0.12 µM.
On to `O=C(Nc1ccc(C(=O)N2CCC3(CCNC3=O)Cc3ccccc32)cc1)c1ccccc1-c1ccccc1` (stereo not shown) [Compound 25, [1,1′-Biphenyl]-2-carboxamide, N-[4-[(2,3-dihydro-2′-oxospiro{4H-1-benzazepine-4,3′-pyrrolidin}-1(5H)-yl)carbonyl]phenyl}-], for which the figures for the pIC50 on human V1a receptor [1] and at human V2 receptor [2] were 8.15 and 7.74, respectively. Besides, the results for the concentration for half-maximal inhibition (IC50) on human V1a receptor [3] and at human V2 receptor [4] were 0.054 µM and 0.062 µM, respectively.
As for `CN1CCC2(CCN(C(=O)c3ccc(NC(=O)c4ccccc4-c4ccccc4)cc3)c3ccccc3C2)C1=O` (stereo not shown) [Compound 21, [1,1′-Biphenyl]-2-carboxamide, N-[4-[(2,3-dihydro-1′-methyl-2′-oxospiro{4H-1-benzazepine-4,3′-pyrrolidin}-1(5H)-yl)carbonyl]phenyl}-], the pIC50 on human V1a receptor [1] is 7.37; on human V2 receptor [2], 7.43. The 50% inhibitory concentration (IC50) at human V1a receptor [3] stood at 0.08 µM; on human V2 receptor [4], 0.437 µM.
Regarding `O=C(Nc1ccc(C(=O)N2CCC3(CCNC3=O)Cc3ccccc32)cc1)c1ccccc1F` (stereo not shown) [Compound 26, Benzamide, 2-fluoro-N-[4-{(2,3-dihydro-2′-oxospiro[4H-1-benzazepine-4,3-pyrrolidin}-1(5H)-yl)carbonyl}phenyl]], the pIC50 at human V1a receptor [1] was 6.80; on human V2 receptor [2], 6.64.
As for `CN1CCCC2(CCN(C(=O)c3ccc(NC(=O)c4ccccc4-c4ccccc4)cc3)c3ccccc3C2)C1=O` (stereo not shown) [Compound 10, [1,1′-Biphenyl]-2-carboxamide, N-[4-[(2,3-dihydro-1′-methyl-2′-oxospiro{4H-1-benzazepine-4,3′-piperidin}-1(5H)-yl)carbonyl]phenyl}-], the negative-log IC50 (pIC50) at human V1a receptor [1] was 7.33; on human V2 receptor [2] it was 7.30. Moreover, on human V1a receptor [3], the IC50 is 0.38 µM.
As for `O=C1CCCC2(CCN(C(=O)c3ccc(NC(=O)c4ccccc4-c4ccccc4)cc3)c3ccccc3C2)N1` (stereo not shown) [Compound 35, [1,1′-Biphenyl]-2-carboxamide, N-[4-[(2,3-dihydro-6′-oxospiro[4H-1-benzazepine-4,2′-piperidin]-1(5H)-yl)carbonyl]phenyl}-], the negative logarithm of the IC50 (pIC50) on human V1a receptor [1] was 7.35; at human V2 receptor [2], 6.64. Further, the IC50 at human V1a receptor [3] is 0.05 µM; against human V2 receptor [4], 0.06 µM.
In the same order, the values of `CCN1CCCC2(CCN(C(=O)c3ccc(NC(=O)c4ccccc4-c4ccccc4)cc3)c3ccccc3C2)C1=O` (stereo not shown) [Compound 11, [1,1′-Biphenyl]-2-carboxamide, N-[4-[(2,3-dihydro-1′-ethyl-2′-oxospiro{4H-1-benzazepine-4,3′-piperidin}-1(5H)-yl)carbonyl]phenyl}-] are 7.25, 7.21, 0.05 µM and 0.132 µM.
On to `Cc1ccc(F)cc1C(=O)Nc1ccc(C(=O)N2CCC3(CCNC3=O)Cc3ccccc32)cn1` (stereo not shown) [Compound 38, Spiro{4H-1-benzazepine-4,3′-pyrrolidin}-[{(2-methyl-5-fluorobenzoyl)amino}nicotinoyl]1,2,3,5-tetrahydro-2′-oxo-], for which the inhibition at 0.2 µM at human V1a receptor [1] worked out at 64%. The molecule also gave a pIC50 on human V2 receptor [2] of 7.03. For the same molecule, the half-inhibitory concentration (IC50) is 0.13 µM on human V1a receptor [3] and 0.036 µM against human V2 receptor [4].
`Cc1ccc(F)cc1C(=O)Nc1ccc(C(=O)N2CCC3(CCNC3=O)Cc3ccccc32)cc1` (stereo not shown) [Compound 27, Spiro{4H-1-benzazepine-4,3′-pyrrolidin}-[{(2-methyl-5-fluorobenzoyl)amino}benzoyl]1,2,3,5-tetrahydro-2′-oxo-]: the values for the pIC50 on human V1a receptor [1] and on human V2 receptor [2] were 7.82 and 7.05, respectively.
Turning to `O=C(Nc1ccc(C(=O)N2CCC3(CCNC3=O)Cc3ccccc32)cc1)c1cc(F)ccc1Cl` (stereo not shown) [Compound 18, Benzamide, 2-chloro-N-[4-{(2,3-dihydro-2′-oxospiro[4H-1-benzazepine-4,3-pyrrolidin}-1(5H)-yl)carbonyl}phenyl]-5-fluoro], the pIC50 on human V1a receptor [1] is 8.10; at human V2 receptor [2], 6.82. For the same molecule, the half-maximal inhibitory concentration (IC50) was 0.01 µM at human V1a receptor [3] and 0.226 µM at human V2 receptor [4].
At human V1a receptor [1], `O=C(Nc1ccc(C(=O)N2CCC3(CCCNC3=O)Cc3ccccc32)cc1)c1ccccc1F` (stereo not shown) [Compound 36, Benzamide, 2-fluoro-N-[4-{(2,3-dihydro-2′-oxospiro[4H-1-benzazepine-4,3-piperidin}-1(5H)-yl)carbonyl}phenyl]] gave a pIC50 of 7.57. Also, on human V2 receptor [2], the inhibition at 0.2 µM was determined as 17%. Also, the IC50 is 0.05 µM on human V1a receptor [3] and more than 3 µM on human V2 receptor [4].
Regarding `O=C(O)CN1CCC2(CCN(C(=O)c3ccc(NC(=O)c4cc(F)ccc4Cl)cc3)c3ccccc3C2)C1=O` (stereo not shown) [Compound 23, Spiro{4H-1-benzazepine-4,3′-pyrrolidin}-1′-acetic acid, 1-[{(2-chloro-5-fluorobenzoyl)amino}benzoyl]1,2,3,5-tetrahydro-2′-oxo-], the inhibition at 0.2 µM on human V1a receptor [1] was found to be 27%; at human V2 receptor [2], 17%.
As to `COc1cc(C(=O)N2CCC3(CCN(C)C3=O)Cc3ccccc32)ccc1NC(=O)c1cc(F)ccc1Cl` (stereo not shown) [Compound 39], on human V1a receptor [1], the inhibition at 0.2 µM worked out at 58%. The pIC50 on human V2 receptor [2] is 8.10. The IC50 at human V1a receptor [3] stood at 0.07 µM.
`O=C(Nc1ccc(C(=O)N2CCC3(CCCNC3=O)Cc3ccccc32)cc1)c1cc(F)ccc1Cl` (stereo not shown) [Compound 7, Benzamide, 2-chloro-N-[4-{(2,3-dihydro-2′-oxospiro[4H-1-benzazepine-4,3-piperidin}-1(5H)-yl)carbonyl}phenyl]-5-fluoro] had a pIC50 at human V1a receptor [1] of 8.05. Further, the inhibition at 0.2 µM at human V2 receptor [2] came out at 63%. The values for the half-inhibitory concentration (IC50) at human V1a receptor [3] and on human V2 receptor [4] were 0.05 µM and 0.49 µM, respectively.

Source of the values: US7825111B2, “Substituted spiroheterocycles” (Janssen Pharmaceutica NV, priority 2006, dated 2010).
